# Assay results: publication PMC7033200, “Annexin A1 accounts for an anti-inflammatory binding target of sesamin metabolites” (NPJ Science of Food, 2020)
# Legend:
# [1] = system: phosphorylated (Ser27) ANX A1 in U937 cells; assay: ANX A1 Ser27 phosphorylation in U937 cells (western blotting); type: cell-based, human
# Procedure: For analyses of ANX A1 phosphorylation, the U937 cells treated as above were lysed with NP40 lysis buffer (20 mmol L^−1 Tris-HCl (pH 7.5), 150 mmol L^−1 NaCl, 1% NP40), and the lysates (10 μg) were subjected to SDS-PAGE, followed by western blotting using antibodies against ANX A1 or phosphorylated (Ser27) ANX A1 (dilution: 1:1000).
# [2] = system: extracellular ANX A1 release from U937 cells; assay: Extracellular release of ANX A1 from U937 cells (ELISA); type: cell-based, human; settings: for cellular release of ANX A1: PMA/LPS-treated U937 cells
# Procedure: (§1) For enzyme-linked immunosorbent assay (ELISA) assays, U937 cells (control or ANX A1 KD) were seeded on 96-well plates and stimulated by adding 100 nmol L^−1 phorbol myristate acetate (Sigma-Aldrich, MO, USA) for 24 h. The cells were treated for 12 h with LPS (100 ng mL^−1) with or without adding the indicated sesamin, SC1, or SC2 and/or PD98059 concentrations. The cell culture supernatants were collected, and TNFα or ANX A1 production was measured using ELISA (TNFα: R&D Systems; ANX A1: USCN, Wuhan, China) according to the manufacturer’s instructions.
# recombinant ANX V = system: T1, recombinant ANX V; assay: Affinity nanobeads binding assay with recombinant annexin V
# T1 construct: purchased Abcam
# CCl4-treated WT mice = assay: CCl4-induced liver damage and inflammation in WT mice; type: in vivo, mouse (C57BL/6J)
# Excerpt: (§2) All protocols for animal procedures were approved by the Ethics Committee of Animal Experiments in accordance with the Internal Regulations on Animal Experiments at Keio University and Suntory Holdings Ltd, which are based on the Law for the Humane Treatment and Management of Animals (Law No. 105, 1 October 1973, as amended on 30 May 2014). Male C57BL/6J wild-type (WT) mice were purchased from CLEA Japan Inc. (Tokyo, Japan). WT and ANX A1-KO mice at 7 to 9 weeks of age received an intraperitoneal injection of vehicle (corn oil, 16.7 mL kg^−1) or CCl4 (50 μL kg^−1). To evaluate the effect of sesamin, vehicle (olive oil, 5 mL kg^−1) or sesamin (25 mg kg^−1) was orally administered twice at 1 h before and 7 h after CCl4 injection. To evaluate the effect of SC1, vehicle (ethanol dissolved in corn oil at a ratio of 1:19, 5 mL kg^−1) or SC1 (50 mg kg^−1) was intraperitoneally administered twice as mentioned above. Mice were euthanized after 12 or 24 h […] CCl4 injection before collecting blood and liver samples. Plasma AST, ALT, or LDH were measured using L-type AST J2, L-type ALT J2 or L-type LD J (Wako, Osaka, Japan), respectively. The liver tissues were fixed with 10% formalin, embedded in paraffin sectioned to 3–4 μm thickness and mounted on slides. Liver sections were de-paraffinized with xylene and re-hydrated with alcohols. The staining was performed with eosin solution for the cytoplasm and Mayer’s haematoxylin solution or monoclonal galectin-3 antibody (1:100, BioLegend, CA, USA). Slides were observed under a light microscope (BX52, Olympus, Japan), and images were analysed using LUMINA VISION (Mitani Corporation, Japan).
# (§3) Production of TNFα or MCP-1 in the plasma or liver was measured using a V-PLEX Proinflammatory Panel 1 Mouse Kit or U-PLEX Mouse MCP-1 assay Kit (Meso Scale Diagnostics, USA), respectively. Plasma or liver tissues homogenised in phosphate-buffered saline (Nacalai Tesque) were applied into the pre-coated plate with antibodies against target proteins before labelling with secondary antibodies conjugated to chemiluminescence. The signal intensity was measured using an analyser (SECTOR Imager 6000, Meso Scale Diagnostics, USA).
# (§4) Total RNA of the liver was extracted using an RNeasy Mini Kit (Qiagen, USA), and the cDNAs were prepared using High-Capacity cDNA Reverse Transcription Kits (Thermo Fisher Scientific, USA). Quantitative reverse transcription-PCR was performed according to the manufacturer’s instructions using the TaqMan® Gene Expression Assay System (Applied Biosystems, USA) with a 7900HT Fast Real Time PCR System (Applied Biosystems, USA). The levels of target mRNAs were normalised using the expression of the 18S ribosomal RNA. The primer IDs are listed in Supplementary Table 1.
# [3] = system: TNFα production in U937 cells; assay: TNFα production in PMA/LPS-stimulated U937 cells (ELISA); type: cell-based, human; settings: for IC50: Homo sapiens, U-937, PMA-differentiated U937 cells, LPS, 12 h, ELISA; for inhibition of TNFα production induced by LPS and PMA: U937 cells, dose-dependent
# Procedure: as §1
# [4] = system: ANX A1 mutants (G210W, F221S, and V251W); assay: ITC binding analysis using recombinant ANX A1 point mutants; set-up: species or system human; settings: V251W in contrast with ANX A1 WT
# Procedure: (§5) ITC experiments were performed at 298 K with ITC buffer (20 mmol L^−1 Tris-HCl (pH 7.5), 100 mmol L^−1 NaCl, 2% dimethyl sulfoxide) using a MicroCal iTC200 (Malvern). SC1 or SC2 were dissolved at 2 mmol L^−1 with ITC buffer and titrated into 1 μmol L^−1 of ANX A1 protein with or without 2 mmol L^−1 EDTA (for apo-ANX A1) or 3 mmol L^−1 CaCl2 (for Ca^2+-bound ANX A1). The titration was performed by injecting 2 µL of the syringe solution at intervals of 120 s. The binding isotherms were analysed using SEDPHAT.[54]
# Supplementary Fi g u re 3. Isothermal titra tion calori met ry analyses using ANX A1 […]
# Analyses of binding affinity between SC1 and ANX A1 (wild type (WT) or point mutants (G210W, F221S, or V251W)) using isothermal titration calorimetry ( ITC). […]
# (1 picture or pasted object on this page, not shown here)
# [5] = system: CCl4-treated ANX A1-KO mice; assay: CCl4-induced liver damage and inflammation in ANX A1-KO mice; type: in vivo, mouse (C57BL/6J)
# Excerpt: ANX A1-deficient mice (C57BL/6J) were generated by homologous recombination at Trans Genic Inc. (Fukuoka, Japan), as shown in Fig. S4. The vector targeting ANX A1 for deleting the coding region (exons 3–6) containing selectable neomycin-resistance (Neo) and PGK promoter genes was used. The targeting vector contained the 3.0 kbp of the 5′ arm flanking sequence and 4.5 kbp of the 3′ arm flanking sequence. The PGK-Neor gene was deleted by crossing with the CAG-flp mouse.[58]
# as §2, §3, §4
# ANX A1 = target: T2, ANX A1 (Homo sapiens, UniProt P04083); assay: Isothermal titration calorimetry (ITC) binding to ANX A1; settings: for dH / dS: 3 mmol L^-1 Ca^2+; for Kd: Ca^2+ form of ANX A1, 3 mmol L^-1 CaCl2, ITC, 298 K, read-out: binding affinity (Kd)
# T2 construct: The ANX A1 cDNA fragment, full-length (1–346 a.a.) or deletion mutants; GST (pGEX-6P-1) (N, cleaved yes); made in house; host or cells: Escherichia coli BL21 (DE3)
# T2 sequence (P04083 1-346): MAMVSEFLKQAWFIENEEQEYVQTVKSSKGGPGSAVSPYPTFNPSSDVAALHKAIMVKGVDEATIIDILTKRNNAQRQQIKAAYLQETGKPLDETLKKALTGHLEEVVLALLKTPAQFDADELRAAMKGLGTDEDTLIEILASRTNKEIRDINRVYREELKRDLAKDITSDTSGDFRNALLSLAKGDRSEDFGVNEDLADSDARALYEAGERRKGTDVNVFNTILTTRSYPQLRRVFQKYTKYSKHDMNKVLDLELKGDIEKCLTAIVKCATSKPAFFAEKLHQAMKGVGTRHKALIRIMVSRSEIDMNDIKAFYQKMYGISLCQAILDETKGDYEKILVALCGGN
# Procedure: as §5
# [6] = system: TNFα production in ANX A1 KD U937 cells; assay: TNFα production in ANX A1 knockdown U937 cells (ELISA); type: cell-based, human; settings: U937 cells with knocked down ANX A1
# Procedure: U937 cells were maintained in RPMI-1640 medium (Gibco/Thermo Fisher Scientific, MA, USA) supplemented with 10% fetal bovine serum. To generate a stable ANX A1-KD cell line, lentivirus vectors encoding a control or shRNA sequence targeting ANX A1 (Supplementary Methods) were transfected into 293FT cells. The lentivirus was prepared according to the manufacturer’s instructions (Invitrogen, MA, USA). U937 cells were infected with the lentivirus, and a stable cell line was selected by maintaining the cells in medium containing 10 μg mL^−1 blasticidin (Invitrogen) for 1 week.
# as §1
# [7] = SC1 50 mg kg^−1 intraperitoneally twice, 12 h after CCl4, WT
# [8] = SC1 50 mg kg^−1 intraperitoneally twice, 24 h, WT
# [9] = SC1 50 mg kg^−1 intraperitoneally twice, 12 h after CCl4, ANX A1-null
# [10] = sesamin 25 mg kg^−1 twice, 12 h, qPCR, WT
# [11] = sesamin 25 mg kg^−1 twice, 12 h after CCl4, WT
# [12] = sesamin 25 mg kg^−1 twice, 24 h, qPCR, WT
# [13] = sesamin 25 mg kg^−1 orally twice, 24 h, ANX A1-null
# [14] = sesamin 25 mg kg^−1 twice, 12 h, qPCR, ANX A1-null
# [15] = sesamin 25 mg kg^−1 twice, 12 h after CCl4, ANX A1-null
# [16] = sesamin 25 mg kg^−1 twice, 24 h, qPCR, ANX A1-null
smiles,measurement,setting,value
"COc1cccc(-c2cc(=O)c3ccccc3o2)c1N [PD98059, reference compound]",effect on SC1-induced phosphorylation of ANX A1,[1]; treated 1 h prior to LPS treatment,suppressed
same,effect on up-regulation of ANX A1 release,"[2]; treated 1 h prior to LPS, dose-dependent",inhibited
"Oc1ccc(C2OCC3C(c4ccc5c(c4)OCO5)OCC23)cc1O (stereo not drawn) [SC1, (7α,7′α,8α,8′α)-3′,4′-methylenedioxy-7,9′:7′,9-diepoxylignane-3,4-diol]",binding of recombinant ANX V to beads,recombinant ANX V,no binding
same,ANX A1 phosphorylation at Ser27,"[1]; after PMA and LPS treatment, dose-dependent, 12 h",significantly induced phosphorylation
same,ANX A1 phosphorylation at Ser27,[1]; without PMA and LPS stimulation,not observed
same,MCP-1 expression in the liver,CCl4-treated WT mice; [7],suppressed
same,TNFα expression in the liver,CCl4-treated WT mice; [7],suppressed
same,plasma ALT,CCl4-treated WT mice; [8],suppressed
same,plasma AST,CCl4-treated WT mice; [8],suppressed
same,plasma LDH,CCl4-treated WT mice; [8],suppressed
same,IC50,[3],2.2 µM
same,inhibition of TNFα production induced by LPS and PMA,[3],significantly inhibited
same,cellular release of ANX A1,[2],significantly enhanced
same,binding activity to SC1 of ANX A1 mutants,[4],disrupted the binding activity
same,MCP-1 expression in the liver,[5]; [9],no effect was observed
same,TNFα expression in the liver,[5]; [9],no effect was observed
same,plasma AST,"[5]; SC1 50 mg kg^−1 intraperitoneally twice, 24 h, ANX A1-null",not
same,dH,ANX A1; ITC,-452.11 kcal/mol
same,dS,ANX A1; ITC,-1491.41 cal/mol K
same,Kd,ANX A1,2.77 µM
same,binding to apo-ANX A1,"ANX A1; Ca^2+ free (EDTA), ITC",No binding
same,inhibitory effects on TNFα production in ANX A1 knockdown cells,[6],disappeared
"Oc1ccc(C2OCC3C(c4ccc(O)c(O)c4)OCC23)cc1O (stereo not drawn) [SC2, (7α,7′α,8α,8′α)-7,9′:7′,9-diepoxylignane-3,3′,4,4′-tetraol]",IC50,[3],10.3 µM
same,inhibition of TNFα production induced by LPS and PMA,[3],significantly inhibited
same,cellular release of ANX A1,[2],significantly enhanced
same,dH,ANX A1; ITC,-308.15 kcal/mol
same,dS,ANX A1; ITC,-1010.16 cal/mol K
same,Kd,ANX A1,8.05 µM
same,inhibitory effects on TNFα production in ANX A1 knockdown cells,[6],disappeared
"c1cc2c(cc1[C@H]1OC[C@H]3[C@@H]1CO[C@@H]3c1ccc3c(c1)OCO3)OCO2 [Sesamin, (7α,7′α,8α,8′α)-3,4:3′,4′-bis(methylenedioxy)-7,9′:7′,9-diepoxylignane]",plasma ALT,"CCl4-treated WT mice; sesamin 25 mg kg^−1 orally twice (1 h before, 7 h after CCl4), 24 h, WT",significantly suppressed
same,plasma LDH,"CCl4-treated WT mice; sesamin 25 mg kg^−1 orally twice, 24 h, WT",significantly suppressed
same,liver injury around the central vein (histology),"CCl4-treated WT mice; sesamin 25 mg kg^−1 orally twice, H&E, WT",suppressed liver injury
same,MCP-1 mRNA expression in the liver,CCl4-treated WT mice; [10],significantly suppressed
same,TNFα mRNA expression in the liver,CCl4-treated WT mice; [10],significantly suppressed
same,galectin-3 mRNA expression in the liver,CCl4-treated WT mice; [10],significantly suppressed
same,MCP-1 protein in the liver,CCl4-treated WT mice; [11],significantly suppressed
same,MCP-1 protein in the plasma,CCl4-treated WT mice; [11],significantly suppressed
same,TNFα protein in the liver,CCl4-treated WT mice; [11],significantly suppressed
same,TNFα protein in the plasma,CCl4-treated WT mice; [11],significantly suppressed
same,accumulation of galectin-3-positive cells in the liver,"CCl4-treated WT mice; sesamin 25 mg kg^−1 twice, 24 h, histology, WT",suppressed
same,liver mRNA expression of Col1a1,CCl4-treated WT mice; [12],suppressed
same,liver mRNA expression of αSMA,CCl4-treated WT mice; [12],suppressed
same,inhibition of TNFα production induced by LPS and PMA,[3],little inhibitory effect
same,cellular release of ANX A1,[2],not
same,plasma ALT,[5]; [13],not observed
same,plasma LDH,[5]; [13],not observed
same,liver injury around the central vein (histology),"[5]; sesamin 25 mg kg^−1 orally twice, H&E, ANX A1-null",not
same,MCP-1 mRNA expression in the liver,[5]; [14],not observed
same,TNFα mRNA expression in the liver,[5]; [14],not observed
same,galectin-3 mRNA expression in the liver,[5]; [14],not observed
same,MCP-1 protein in the plasma,[5]; [15],not
same,TNFα protein in the liver,[5]; [15],not
same,TNFα protein in the plasma,[5]; [15],not
same,accumulation of galectin-3-positive cells in the liver,"[5]; sesamin 25 mg kg^−1 twice, 24 h, histology, ANX A1-null",not
same,liver mRNA expression of Col1a1,[5]; [16],not
same,liver mRNA expression of αSMA,[5]; [16],not
same,binding activity with ANX A1 using ITC analysis,ANX A1; ITC,unable to detect any binding activity
